Assay [1] has as its system 26-10 BABS (sFv), single chain biosynthetic antibody binding site VH-(Gly4-Ser)3-VL mimicking murine anti-digoxin monoclonal 26-10. Put plainly: Specificity determination by radioimmunoassay (inhibition of 125I-digoxin binding), 26-10 BABS. As for the experimental part:
After the plates were washed and blocked with 1% horse serum in PBSA, solutions (50 μl) containing 26-10 Fab or the BABS in either PBSA or 0.01M sodium acetate at pH 5.5 were added to the wells and incubated 2-3 hrs at room temperature.

In assay [2] the target is IgG2a,k monoclonal antibody 26-10 (parent anti-digoxin antibody). The conditions noted are these: cited from earlier work.
Assay [3] deals with anti-digoxin 26-10 Fab (murine monoclonal 26-10). Put plainly: Affinity determination by equilibrium binding of 3H-digoxin (immunoprecipitation), 26-10 Fab. On the procedure: (§1) Association constants were measured by equilibrium binding studies. […] After 2-3 hrs of incubation at room temperature, the protein was precipitated by the addition of 100 μl goat antiserum to murine Fab fragment (ICN Immuno-Biologicals), 50 μl of the IgG fraction of rabbit anti-goat IgG (ICN ImmunoBiologicals), and 50 μl of a 10% suspension of protein A-Sepharose (Sigma). Following 2 hrs at 4° C., bound and free antigen were separated by vacuum filtration on glass fiber filters (Vacuum Filtration Manifold, Millipore, Bedford, Mass.). Filter disks were then counted in 5 ml of […] scintillation fluid with a Model 1500 Tri-Carb Liquid Scintillation Analyzer (Packard, Sterling, Va.). The Scatchard analyses of the untransformed radioligand binding data using LIGAND, a non-linear curve fitting program based on mass action. Ko s were also calculated by Sips plots and binding isotherms shown in FIG. 13A for the BABS and 13B for the Fab. […] These binding data are also plotted in linear form as Sips plots (inset), having the same abscissa as the binding isotherm but with the ordinate representing log r/(n-r), defined below.

In assay [4] the target is 26-10 BABS, single chain biosynthetic antibody binding site VH-(Gly4-Ser)3-VL mimicking murine anti-digoxin monoclonal 26-10. Put plainly: Affinity determination by equilibrium binding of 3H-digoxin (immunoprecipitation), 26-10 BABS. As for the experimental part:
as §1

[5] abbreviates: normalizing glycoside Digoxigenin.

For the molecule `CC(=O)OC1CCC2(C=O)C3CCC4(C)C(C5=CC(=O)OC5)CCC4(O)C3CCC2(O)C1` (stereo not shown) [Acetyl Strophanthidin], the “normalized concentration of inhibitor giving 50% inhibition of 125I-digoxin binding” value came out at 0.8 in assay [1] (setting [5]) and 5.9 in assay [1] (normalizing glycoside Digoxin).

With `C[C@]12CC[C@H](O)C[C@H]1CC[C@@H]1[C@@H]2CC[C@]2(C)[C@@H](C3=CC(=O)OC3)CC[C@]12O` [Digitoxigenin], the “normalized concentration of inhibitor giving 50% inhibition of 125I-digoxin binding” value in assay [1] (setting [5]) is on record as 0.4; in assay [1] (normalizing glycoside Digoxin) it was 2.6.

For `C[C@H]1O[C@@H](O[C@H]2[C@@H](O)C[C@H](O[C@H]3[C@@H](O)C[C@H](O[C@H]4CC[C@@]5(C)[C@H](CC[C@@H]6[C@@H]5CC[C@]5(C)[C@@H](C7=CC(=O)OC7)CC[C@]65O)C4)O[C@@H]3C)O[C@@H]2C)C[C@H](O)[C@@H]1O` [Digitoxin], the figures for the “normalized concentration of inhibitor giving 50% inhibition of 125I-digoxin binding” value in assay [1] (setting [5]) and in assay [1] (normalizing glycoside Digoxin) were 0.3 and 2.0, respectively.

With `C[C@]12CC[C@H](O)C[C@H]1CC[C@@H]1[C@@H]2C[C@@H](O)[C@]2(C)[C@@H](C3=CC(=O)OC3)CC[C@]12O` [Digoxigenin], the “normalized concentration of inhibitor giving 50% inhibition of 125I-digoxin binding” value in assay [1] (setting [5]) came to 1.0; in assay [1] (normalizing glycoside Digoxin), 7.3.

Regarding `C[C@H]1O[C@@H](O[C@H]2[C@@H](O)C[C@H](O[C@H]3[C@@H](O)C[C@H](O[C@H]4CC[C@@]5(C)[C@H](CC[C@@H]6[C@@H]5C[C@@H](O)[C@]5(C)[C@@H](C7=CC(=O)OC7)CC[C@]65O)C4)O[C@@H]3C)O[C@@H]2C)C[C@H](O)[C@@H]1O` [Digoxin], the Kd in assay [2] was 0.185 nM. Further, the “Association Constant, Ko (Fab)” value was 3.3e+08 M⁻¹ in assay [3] (Binding isotherm), “(1.9 ± 0.2) × 10^8 M^-1” in assay [3] (Scatchard plot) and 1.8e+08 M⁻¹ in assay [3] (Sips plot). Also, the “Association Constant, Ko (BABS)” value in assay [4] (Binding isotherm) is 5.2e+07 M⁻¹; in assay [4] (Scatchard plot), “(3.2 ± 0.9) × 10^7 M^-1”; in assay [4] (Sips plot), 2.6e+07 M⁻¹.

Turning to `C[C@H]1O[C@@H](O[C@H]2[C@@H](O)C[C@H](O[C@H]3[C@@H](O)C[C@H](O[C@H]4CC[C@@]5(C)[C@H](CC[C@@H]6[C@@H]5CC[C@]5(C)[C@@H](C7=CC(=O)OC7)[C@@H](O)C[C@]65O)C4)O[C@@H]3C)O[C@@H]2C)C[C@H](O)[C@@H]1O` [Gitoxin], the results for the “normalized concentration of inhibitor giving 50% inhibition of 125I-digoxin binding” value in assay [1] (setting [5]) and in assay [1] (normalizing glycoside Digoxin) were 8.5 and 62, respectively.

For `C[C@@H]1O[C@@H](O[C@H]2C[C@@H](O)[C@]3(CO)[C@H]4[C@H](O)C[C@]5(C)[C@@H](C6=CC(=O)OC6)CC[C@]5(O)[C@@H]4CC[C@]3(O)C2)[C@H](O)[C@H](O)[C@H]1O` [Ouabain], the “normalized concentration of inhibitor giving 50% inhibition of 125I-digoxin binding” value in assay [1] (setting [5]) was determined as 21; in assay [1] (normalizing glycoside Digoxin), 150.

The record behind these values is US5482858A, “Polypeptide linkers for production of biosynthetic proteins” (priority 1993, dated 1996).
